Active and inactive are the calls of the source. The rule behind the calls is not given here.
System: CCRIS mutagenicity, Ames/micronucleus/aberration tests
Experiment: CCRIS mutagenicity studies
[1] = Test System: AMES SALMONELLA TYPHIMURIUM, Strain/Indicator: TA98, Metabolic Activation: NONE, Method: PREINCUBATION
[2] = Test System: AMES SALMONELLA TYPHIMURIUM, Strain/Indicator: TA98, Metabolic Activation: NONE, Method: STANDARD PLATE
[3] = Test System: AMES SALMONELLA TYPHIMURIUM, Strain/Indicator: TA100, Metabolic Activation: NONE, Method: STANDARD PLATE
[4] = Test System: AMES SALMONELLA TYPHIMURIUM, Strain/Indicator: TA97, Metabolic Activation: HAMSTER, LIVER, S-9, AROCLOR 1254 (10 OR 30%), Method: PREINCUBATION
[5] = Test System: AMES SALMONELLA TYPHIMURIUM, Strain/Indicator: TA97, Metabolic Activation: NONE, Method: PREINCUBATION
[6] = Test System: AMES SALMONELLA TYPHIMURIUM, Strain/Indicator: TA97, Metabolic Activation: RAT, LIVER, S-9, AROCLOR 1254 (10 OR 30%), Method: PREINCUBATION
[7] = Test System: AMES SALMONELLA TYPHIMURIUM, Strain/Indicator: TA98, Metabolic Activation: HAMSTER, LIVER, S-9, AROCLOR 1254 (10 OR 30%), Method: PREINCUBATION
[8] = Test System: AMES SALMONELLA TYPHIMURIUM, Strain/Indicator: TA98, Metabolic Activation: RAT, LIVER, S-9, AROCLOR 1254 (10 OR 30%), Method: PREINCUBATION
[9] = Test System: AMES SALMONELLA TYPHIMURIUM, Strain/Indicator: TA100, Metabolic Activation: HAMSTER, LIVER, S-9, AROCLOR 1254 (10 OR 30%), Method: PREINCUBATION
[10] = Test System: AMES SALMONELLA TYPHIMURIUM, Strain/Indicator: TA100, Metabolic Activation: NONE, Method: PREINCUBATION
[11] = Test System: AMES SALMONELLA TYPHIMURIUM, Strain/Indicator: TA100, Metabolic Activation: RAT, LIVER, S-9, AROCLOR 1254 (10 OR 30%), Method: PREINCUBATION
[12] = Test System: AMES SALMONELLA TYPHIMURIUM, Strain/Indicator: TA1535, Metabolic Activation: HAMSTER, LIVER, S-9, AROCLOR 1254 (10 OR 30%), Method: PREINCUBATION
[13] = Test System: AMES SALMONELLA TYPHIMURIUM, Strain/Indicator: TA1535, Metabolic Activation: NONE, Method: PREINCUBATION
[14] = Test System: AMES SALMONELLA TYPHIMURIUM, Strain/Indicator: TA1535, Metabolic Activation: RAT, LIVER, S-9, AROCLOR 1254 (10 OR 30%), Method: PREINCUBATION

With `O=[N+]([O-])c1ccc2ccc3c([N+](=O)[O-])c4ccccc4c4ccc1c2c34` the mutagenic call (Test System: AMES SALMONELLA TYPHIMURIUM, Strain/Indicator: TA98(1,8-DNP6), Metabolic Activation: NONE) was “active; positive”, the mutagenic call (Test System: AMES SALMONELLA TYPHIMURIUM, Strain/Indicator: TA98(NR), Metabolic Activation: NONE) was “active; positive” and the mutagenic call (Test System: AMES SALMONELLA TYPHIMURIUM, Strain/Indicator: TA98(NR), Metabolic Activation: NONE, Method: PREINCUBATION) was “active; positive”. The mutagenic call (Test System: AMES SALMONELLA TYPHIMURIUM, Strain/Indicator: TA98, Metabolic Activation: NONE) was “active; positive”, the mutagenic call [1] was “active; positive” and the mutagenic call [2] was “active; positive”. For the same compound, the mutagenic call [3] was “active; positive”.
`Cc1ccnc2ccccc12` was tested, and the mutagenic call (Test System: AMES SALMONELLA TYPHIMURIUM, Strain/Indicator: TA100, Metabolic Activation: RAT, LIVER, S-9, PHENOBARBITAL AND 5,6-BENZOFLAVONE, Method: PREINCUBATION) was “active; positive”, the mutagenic call (Test System: AMES SALMONELLA TYPHIMURIUM, Strain/Indicator: TA100, Metabolic Activation: RAT, LIVER, S-9, PHENOBARBITAL AND 5,6-NAPHTHOFLAVONE, Method: PREINCUBATION) was “active; positive” and the mutagenic call (Test System: AMES SALMONELLA TYPHIMURIUM, Strain/Indicator: TA100, Metabolic Activation: RAT, LIVER, S-9, Method: PREINCUBATION) was “active; positive”. For the same compound, the mutagenic call (Test System: UDS RODENT HEPATOCYTES, Strain/Indicator: THY INCORP (NON-S-PHASE), Metabolic Activation: NONE, Method: AUTORADIOGRAPHY) was “active; positive”.
For `CC(Br)C(=O)N(C)Cc1ccccc1` (stereo not drawn), the mutagenic call (Test System: AMES SALMONELLA TYPHIMURIUM, Strain/Indicator: TA100, Metabolic Activation: MOUSE, LIVER, S-9, AROCLOR 1254, Method: STANDARD PLATE) was “inactive; negative” and the mutagenic call [3] was “inactive; negative”.
`N#CCCO` was tested, and the mutagenic call [4] was “inactive; negative”, the mutagenic call [5] was “inactive; negative” and the mutagenic call [6] was “inactive; negative”. The mutagenic call [7] was “inactive; negative”, the mutagenic call [1] was “inactive; negative” and the mutagenic call [8] was “inactive; negative”. For the same compound, the mutagenic call [9] was “inactive; negative”, the mutagenic call [10] was “inactive; negative” and the mutagenic call [11] was “inactive; negative”. The mutagenic call [12] was “inactive; negative”, the mutagenic call [13] was “inactive; negative” and the mutagenic call [14] was “inactive; negative”.
With `Cc1ccc([N+](=O)[O-])c(C)c1[N+](=O)[O-]` the mutagenic call [1] was “inactive; negative”, the mutagenic call (Test System: AMES SALMONELLA TYPHIMURIUM, Strain/Indicator: TA98, Metabolic Activation: RAT, LIVER, S-9, KANECHLOR 500, Method: PREINCUBATION) was “inactive; negative” and the mutagenic call (Test System: AMES SALMONELLA TYPHIMURIUM, Strain/Indicator: TA100, Metabolic Activation: RAT, LIVER, S-9, KANECHLOR 500, Method: PREINCUBATION) was “active; positive”.
With `Nc1c(Oc2ccccc2)cc(O)c2c1C(=O)c1ccccc1C2=O` the mutagenic call (Test System: AMES SALMONELLA TYPHIMURIUM, Strain/Indicator: TA98, Metabolic Activation: HAMSTER, LIVER, S-9, AROCLOR 1254 (10%), Method: STANDARD PLATE) was “active; positive”, the mutagenic call [2] was “active; positive” and the mutagenic call (Test System: AMES SALMONELLA TYPHIMURIUM, Strain/Indicator: TA98, Metabolic Activation: RAT, LIVER, S-9, AROCLOR 1254 (10%), Method: STANDARD PLATE) was “active; positive”. The mutagenic call (Test System: AMES SALMONELLA TYPHIMURIUM, Strain/Indicator: TA100, Metabolic Activation: HAMSTER, LIVER, S-9, AROCLOR 1254 (10%), Method: STANDARD PLATE) was “inactive; negative”, the mutagenic call [3] was “inactive; negative” and the mutagenic call (Test System: AMES SALMONELLA TYPHIMURIUM, Strain/Indicator: TA100, Metabolic Activation: RAT, LIVER, S-9, AROCLOR 1254 (10%), Method: STANDARD PLATE) was “inactive; negative”. For the same compound, the mutagenic call (Test System: MOUSE LYMPHOMA, Strain/Indicator: L5178Y (TK+/TK-), Metabolic Activation: RAT, LIVER, S-9, AROCLOR 1254, Method: SUSPENSION/PLATE) was “inactive; negative. reevaluation of results: negative”.
In the case of `CCCCCCC(C)OC(=O)C[S][Sn]([CH2]CCC)([S]CC(=O)OC(C)CCCCCC)[S]CC(=O)OC(C)CCCCCC` (stereo not drawn), the mutagenic call [4] is reported as “inactive; negative”, the mutagenic call [5] is reported as “inactive; negative” and the mutagenic call [6] is reported as “inactive; negative”. For the same compound, the mutagenic call [7] was “inactive; negative”, the mutagenic call [1] was “inactive; negative” and the mutagenic call [8] was “inactive; negative”. The mutagenic call [9] was “inactive; negative”, the mutagenic call [10] was “inactive; negative” and the mutagenic call [11] was “inactive; negative”. For the same compound, the mutagenic call [12] was “inactive; negative”, the mutagenic call [13] was “inactive; negative” and the mutagenic call [14] was “inactive; negative”.
For `CCCCOC(=O)C=Cc1ccc([N+](=O)[O-])o1`, the mutagenic call [1] was “active; positive”.
With `CC1(C)C[C@H]2C=C(C=O)[C@]34C[C@]3(C(=O)O[C@@H]4O)[C@H]2C1` the mutagenic call (Test System: AMES SALMONELLA TYPHIMURIUM, Strain/Indicator: TA98, Metabolic Activation: NONE, Method: SPOT TEST) was “active; positive”, the mutagenic call [2] was “active; positive” and the mutagenic call (Test System: AMES SALMONELLA TYPHIMURIUM, Strain/Indicator: TA100, Metabolic Activation: NONE, Method: SPOT TEST) was “inactive; negative”. For the same compound, the mutagenic call [3] was “active; positive”, the mutagenic call (Test System: AMES SALMONELLA TYPHIMURIUM, Strain/Indicator: TA1535, Metabolic Activation: NONE, Method: SPOT TEST) was “inactive; negative” and the mutagenic call (Test System: AMES SALMONELLA TYPHIMURIUM, Strain/Indicator: TA1538, Metabolic Activation: NONE, Method: SPOT TEST) was “inactive; negative”. The mutagenic call (Test System: AMES SALMONELLA TYPHIMURIUM, Strain/Indicator: TA2637, Metabolic Activation: NONE, Method: STANDARD PLATE) was “active; positive” and the mutagenic call (Test System: CHINESE HAMSTER V-79, Strain/Indicator: V-79/6-THIOGUANINE (HGPRT), Metabolic Activation: NONE) was “inactive; negative”.
In the case of `CN1CCN(c2c(F)cc3c(=O)c(C(=O)O)cn4c3c2OCN4C)CC1`, the mutagenic call (Test System: AMES SALMONELLA TYPHIMURIUM, Strain/Indicator: TA102, Metabolic Activation: NONE, Method: STANDARD PLATE) is reported as “active; positive” and the mutagenic call (Test System: CHINESE HAMSTER V-79, Strain/Indicator: V-79 (HPRT)/6-THIOGUANINE, Metabolic Activation: RAT, LIVER, S-9, AROCLOR 1254) is reported as “active; positive”.

Source: PubChem BioAssay AID1259407 (Chemical Carcinogenesis Research Information System (CCRIS), 2018)
